In patent US20250361259A1, “AMORPHOUS FORM OF REDUCED ß-NICOTINAMIDE MONONUCLEOTIDE CALCIUM SALT, AND PREPARATION METHOD AND USE THEREFOR” (EffePharm (Shanghai) Co., Ltd., priority 2023, published 2025):
Where two headings read alike, the source gives them in different places.

Assays:
[1] = Stability comparison, solids placed openly in a stability test chamber at 25° C. and 65% RH (purity by HPLC, appearance); assay type: physicochemical; details: open, calcium salt
Experimental: NMNH is the reduced form of NMN, sensitive to air, easily oxidized, and unstable, making it unsuitable for long-term storage and market promotion. WO2023160405(A1) reported the NMNH disodium salt compound and its crystalline and amorphous forms. […] Such stability fails to meet the shelf-life requirements for commercial products, hindering market promotion. The NMNH calcium salt amorphous solids A/B/C/D were each placed openly in a stability test chamber at 25° C. and 65% RH to evaluate their stability, yielding the data shown in Table 1 and Table 2.

[2] = Hygroscopicity study (water content, KF) at 25° C., 65% RH; assay type: physicochemical
Experimental: The NMNH calcium salt amorphous solids A/B/C/D were each placed openly in a stability test chamber at 25° C. and 65% RH to evaluate their stability, yielding the data shown in Table 1 and Table 2. […] The amorphous solid of NMNH disodium salt is more unstable in the air. After 1 day of storage, it absorbs water from powder to oil, and the purity drops from 99.30% to 99.02%.

[3] = 25° C., 65% RH, according to WO2023160405(A1), cited from earlier work
[4] = according to WO2023160405(A1); cited from earlier work

Compound	Purity (HPLC, area %) ([1]; 0 day) [%]	Purity (HPLC, area %) ([1]; 5 days) [%]	Purity (HPLC, area %) ([1]; 60 days) [%]	Water content of NMNH calcium salt amorphous solid (KF) ([2]; 0 day) [%]	Water content of NMNH calcium salt amorphous solid (KF) ([2]; 5 days) [%]	Water content of NMNH calcium salt amorphous solid (KF) ([2]; 60 days) [%]	further results
NC(=O)C1=CN([C@@H]2O[C@H](COP(=O)(O)O)[C@@H](O)[C@H]2O)C=CC1.[Ca+2] [NMNH calcium salt Amorphous form A, reduced β-nicotinamide mononucleotide calcium salt]	99.51	99.50	99.50	0.8	0.8	0.9	–
NC(=O)C1=CN([C@@H]2O[C@H](COP(=O)(O)O)[C@@H](O)[C@H]2O)C=CC1.[Ca+2] [NMNH calcium salt Amorphous form B, reduced β-nicotinamide mononucleotide calcium salt]	99.28	99.28	99.28	1.3	1.3	1.3	–
NC(=O)C1=CN([C@@H]2O[C@H](COP(=O)(O)O)[C@@H](O)[C@H]2O)C=CC1.[Ca+2] [NMNH calcium salt Amorphous form C, reduced β-nicotinamide mononucleotide calcium salt]	99.14	99.14	99.13	1.5	1.6	1.5	–
NC(=O)C1=CN([C@@H]2O[C@H](COP(=O)(O)O)[C@@H](O)[C@H]2O)C=CC1.[Ca+2] [NMNH calcium salt Amorphous form D, reduced β-nicotinamide mononucleotide calcium salt]	99.50	99.49	99.49	1.9	1.9	1.9	–
NC(=O)C1=CN([C@@H]2O[C@H](COP(=O)([O-])[O-])[C@@H](O)[C@H]2O)C=CC1.[Na+].[Na+] [NMNH disodium salt Amorphous form, NMNH disodium salt]	–	–	–	–	–	–	Purity (HPLC, area %) ([3]; 0 day, disodium salt): 99.30%; Purity (HPLC, area %) ([3]; 0 day, listed as NMNH disodium salt amorphous powder, disodium salt): 99.30%; Purity (HPLC, area %) ([3]; 0 day, listed as amorphous solid of NMNH disodium salt, disodium salt): 99.30%; Appearance after storage (powder to oil) ([3]; 1 day): oil; Purity (HPLC, area %) ([3]; 1 day, disodium salt): 99.02%; Purity (HPLC, area %) ([3]; 1 day, listed as NMNH disodium salt amorphous powder, disodium salt): 99.02%; Purity (HPLC, area %) ([3]; 1 day, listed as amorphous solid of NMNH disodium salt, disodium salt): 99.02%
NC(=O)C1=CN([C@@H]2O[C@H](COP(=O)([O-])[O-])[C@@H](O)[C@H]2O)C=CC1.[Na+].[Na+] [NMNH disodium salt Crystal form A, NMNH disodium salt]	–	–	–	–	–	–	Purity (HPLC, area %) ([3]; 0 day, disodium salt): 99.33%; Purity (HPLC, area %) ([3]; 0 day, listed as NMNH disodium salt crystal form A, disodium salt): 99.33%; Purity (HPLC, area %) ([3]; 0 day, listed as NMNH disodium salt crystalline Form A solid, disodium salt): 99.33%; Purity (HPLC, area %) ([3]; 1 day, disodium salt): 99.27%; Purity (HPLC, area %) ([3]; 5 days): 99.01%
NC(=O)C1=CN([C@@H]2O[C@H](COP(=O)([O-])[O-])[C@@H](O)[C@H]2O)C=CC1.[Na+].[Na+] [NMNH disodium salt crystal form B, NMNH disodium salt]	–	–	–	–	–	–	Solid form change when stored in the air [4]: absorb water and transform into crystal form A
